Columns and labels:
[1] = Intra-cisternal injections: mean arterial BP and HR; type: in vivo, rats; details: for effect on mean arterial BP and HR: eugenosedin-A and trazodone 0.3, 0.03 μmol, yohimbine 0.03 μmol
Procedure: (§1) Intra-cisternal injections. […] Briefly, rats weighing 250–300 g were anaesthetized with pentobarbital sodium (50 mg kg^−1, i.p.) and mounted in a David-Kopf stereotaxic instrument (Yeh J L. et al., Brain. Res. Bull., 30:641–648, 1993). The calvarium was exposed and a 1 mm diameter trephine hole was drilled 1.8 mm lateral to the coronary and 1.5 mm posterior to the sagittal sutures. A cannula (0.7 mm O.D.) connected to a Hamilton syringe (RN-705, 5051) by PE-50 was advanced 4.7 mm into the brain using the electrode carrier.

IFN-γ = experiment: Plasma cytokine immunoreactivity after LPS: IFN-γ; type: in vivo, Wistar rats; details: 1 hour after LPS administration
Procedure: (§2) Plasma cytokine immunoreactivity and blood glucose. Blood was collected from venous cannula, injected into ice-cold heparinized Eppendorf tubes and centrifuged at 1500 rpm for 10 min at 4° C. Plasma supernatant was stored at −70° C. until analyzed. Solid phase enzyme immunoassay that specifically detects murine IL-1β, IL-6, IFN-γ and TNF-α was used with a detection limit of >10 pg/ml (Endogen, U.S.A). Pretreatment with eugenosedin-A and other agents was performed 15 minutes before intravenous injection of LPS. Blood was collected from venous cannula. Blood glucose was measured with a glucose test strip (Glucotide, Bayer, U.S.A) at 1, 3 and 5 hours.

IL-1β = experiment: Plasma cytokine immunoreactivity after LPS: IL-1β; type: in vivo, Wistar rats; details: 3 hours after LPS 10 mg kg^−1 i.v.; pretreatment (eugenosedin-A 1 mg kg^−1 i.v.)
Procedure: as §2

TNF-α = experiment: Plasma cytokine immunoreactivity after LPS: TNF-α; type: in vivo, Wistar rats
Procedure: as §2

α2-adrenoceptor = experiment: Intra-cisternal antagonism of clonidine-induced hypotension and bradycardia; type: in vivo, rats; details: for hypotensive effect of clonidine: given 15 min before clonidine injection
Procedure: as §1

LPS-induced hypotension = type: in vivo, Wistar rats; details: LPS 10 mg kg^−1 i.v.; for development of hypotension after LPS injection and normalization of BP: i.v. pretreatment; for second prolonged hypotensive phase after LPS: pretreatment 0.5 and 1 mg kg^−1 i.v.; for LPS-induced hypotension: 15 mg kg^−1 i.v.
Procedure: Intravenous injection. The experiments were carried out as previously described (Wu B N. et al., Biochem. Pharmacol., 48:101–109, 1994). In brief, Wistar rats weighing 250–300 grams were anesthetized with pentobarbital sodium (50 mg kg^−1, i.p.). Following tracheal cannulation, systemic arterial BP and HR were recorded from the femoral artery by a pressure transducer (model P10EZ; Spectramed, Oxnard, Calif., U.S.A.) connected to a recorder (GOULD, Valley View, Ohio, Model P50). Body temperature was maintained at 37° C. by an electric heating pad. A femoral vein was cannulated for intravenous injection of drugs and LPS (10 mg kg^−1).

[2] = Micro-injection in NTS: BP and HR; type: in vivo, rats; details: for pressor response and HR: NTS micro-injection, 0.03, 0.3 μmol, within 30 minutes after injection
Description: Micro-injection in NTS. Rats were anesthetized and placed in a David-Kopf stereotaxic instrument. The cerebellum was exposed after removing the skin and occipital bone. […] At the end of experiments, the animals were sacrificed. The brain was removed and sectioned for histological confirmation of the drug application site.

Blood glucose after LPS = type: in vivo, Wistar rats; details: for initial hyperglycemic response to LPS: blood glucose at 1 and 3 hours after LPS; for hypoglycemic response to LPS: blood glucose at 5 hours after LPS
Procedure: as §2

α2 receptors = experiment: Receptor binding, [3H]yohimbine, rat cortex; set-up: species or system Wistar rat
Procedure: (§3) Drugs and chemicals. […] Eugenosedin-A synthesized in this laboratory was solvated in 50% absolute alcohol, 10% propylene glycol and further diluted with distilled water. All of the [^3H] ligand was purchased from New England Nuclear Corp. (Boston, Mass., U.S.A.).
(§4) Receptor binding studies. […] The homogenate was pressure filtered through muslin. Filtrate was centrifuged at 1000 g for 10 min. Supernatant was centrifuged at 10,000 g for 12 min at 4° C. The second supernatant was centrifuged at 30,000 g for 15 min at 4° C. The final pellet was re-suspended in assay buffer (75 mM Tris HCl, 25 mM MgCl2, pH 7.4). Protein content was determined by Bradford's method. Radioligand agents and membranes (200–300 μg) were incubated for 60 min at 25° C. with or without the addition of nonspecific binding agents, in a 75 mM Tris HCl buffer with 25 mM MgCl2, to make a final volume of 500 μl. In competitive-binding experiments, the competing agent was added directly to the incubation mixture. Incubation was terminated by addition of 1 ml of ice-cold assay buffer followed by immediate filtration through Whatman GF/C glass fiber filters supported on a 12-port filter manifold (Millipore). The filters were immediately washed 3 times with 5 ml of ice-cold assay buffer and dried in an oven at 60° C. for 2 hours before adding 5 ml of Triton-toluene-based scintillation fluid. Membrane-bound radioligand trapped in the filters was counted in a Beckman LS6500 scintillation system (Fullerton, Calif., U.S.A) with an efficiency of 45%. In each experiment, nonspecifically bound radioligand agents were determined by incubating membrane protein. Specific binding for each sample was obtained by deducting this value from the total binding of radioligand agents.

α1 receptors = experiment: Receptor binding, [3H]prazosin, rat cortex; set-up: species or system Wistar rat
Procedure: as §3, §4

5-HT2A receptor = 5-HT2A receptor (Rattus norvegicus, UniProt P14842); experiment: Receptor binding, [3H]ketanserin, rat cortex; set-up: from tissue; host or cells: Wistar rat cortex membranes; species or system Wistar rat; details: [3H]ketanserin, rat cortex
Chain of 5-HT2A receptor (P14842 whole entry): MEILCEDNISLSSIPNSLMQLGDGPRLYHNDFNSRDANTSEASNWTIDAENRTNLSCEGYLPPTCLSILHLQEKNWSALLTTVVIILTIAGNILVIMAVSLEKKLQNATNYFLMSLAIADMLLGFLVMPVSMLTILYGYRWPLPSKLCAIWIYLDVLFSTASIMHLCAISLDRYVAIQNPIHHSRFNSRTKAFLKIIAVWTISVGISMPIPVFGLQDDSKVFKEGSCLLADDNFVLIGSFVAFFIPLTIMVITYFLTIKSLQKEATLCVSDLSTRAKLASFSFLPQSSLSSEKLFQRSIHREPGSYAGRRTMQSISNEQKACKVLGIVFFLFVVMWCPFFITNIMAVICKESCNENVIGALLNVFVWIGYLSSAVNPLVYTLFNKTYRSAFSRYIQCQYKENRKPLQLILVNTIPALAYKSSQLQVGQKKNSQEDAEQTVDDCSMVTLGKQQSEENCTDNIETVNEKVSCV
Procedure: as §3, §4

[3] = Peroxyl radical scavenging, B-phycoerythrin/AAPH; type: biochemical
Procedure: The stoichiometric factors of the test compounds with hydrophilic peroxyl radicals were calculated by the equation as mentioned Ascorbic acid was used as a positive control.

[4] = 3 hours after LPS 10 mg kg^−1 i.v., pretreatment (eugenosedin-A 1 mg kg^−1 i.v.)
[5] = 5 hours after LPS 10 mg kg^−1 i.v., pretreatment

COC(=O)[C@@H]1[C@H]2C[C@H]3c4[nH]c5ccccc5c4CCN3C[C@@H]2CC[C@@H]1O [yohimbine]
increase of HR ([1]; 0.03 μmol): up to 78 bpm
pressor response ([1]; 0.03 μmol): up to 13 mmHg
effect on mean arterial BP and HR [1]: increased mean arterial BP and HR
LPS-induced production of IFN-γ (IFN-γ): insignificantly enhanced
LPS-induced increase in IL-1β (IL-1β): significantly inhibited
LPS-induced increase in TNF-α (TNF-α; [4]): significantly inhibited
LPS-induced increase in TNF-α (TNF-α; [5]): significantly reduced
hypotensive effect of clonidine (α2-adrenoceptor): antagonized the hypotensive effect of clonidine
clonidine-induced bradycardia (α2-adrenoceptor; low dose, 0.03 μmol): did not inhibit clonidine-induced bradycardia
development of hypotension after LPS injection and normalization of BP (LPS-induced hypotension): normalized BP within 5 hours
first immediate hypotensive phase after LPS (LPS-induced hypotension; pretreatment 0.5 mg kg^−1 i.v.): not affected
first immediate hypotensive phase after LPS (LPS-induced hypotension; pretreatment 1 mg kg^−1 i.v.): attenuated it
second prolonged hypotensive phase after LPS (LPS-induced hypotension): significantly reduced
HR increase ([2]; NTS micro-injection, 0.03 μmol): up to 78 bpm
pressor response ([2]; NTS micro-injection, 0.03 μmol): up to 13 mmHg

Cl.N=C(N)NN [aminoguanidine, aminoguanidine HCl]
LPS-induced increase in IL-1β (IL-1β): significantly inhibited
LPS-induced increase in TNF-α (TNF-α; [4]): significantly inhibited
LPS-induced hypotension (LPS-induced hypotension): inhibited LPS-induced hypotension
initial hyperglycemic response to LPS (Blood glucose after LPS): inhibited the initial hyperglycemic response to LPS
hypoglycemic response to LPS (Blood glucose after LPS): did not reverse the hypoglycemic response

CC(C)NCC(O)COc1cccc2ccccc12 (stereo not shown) [propranolol]
order of α2 receptor binding potency (α2 receptors): prazosin >eugenosedin-A >ketanserin >methylsergide >propranolol and 5-HT
order of α1 receptor binding potency (α1 receptors): prazosin >ketanserin >eugenosedin-A >methylsergide, propranolol and 5-HT

CC[C@@H](CO)NC(=O)[C@@H]1C=C2c3cccc4c3c(cn4C)C[C@H]2N(C)C1 [methysergide]
binding affinity for α2-adrenoceptors (α2 receptors): had binding affinities for α2-adrenoceptors
order of α2 receptor binding potency (α2 receptors): prazosin >eugenosedin-A >ketanserin >methylsergide >propranolol and 5-HT
binding affinity for α1 receptors (α1 receptors): lower binding affinities for α1 receptors
order of α1 receptor binding potency (α1 receptors): prazosin >ketanserin >eugenosedin-A >methylsergide, propranolol and 5-HT

NCCc1c[nH]c2ccc(O)cc12 [Compound 5-HT, serotonin]
order of α2 receptor binding potency (α2 receptors): prazosin >eugenosedin-A >ketanserin >methylsergide >propranolol and 5-HT
binding affinity for α1 receptors (α1 receptors): lower binding affinities for α1 receptors
order of α1 receptor binding potency (α1 receptors): prazosin >ketanserin >eugenosedin-A >methylsergide, propranolol and 5-HT
order of potency on 5-HT2A receptors (5-HT2A receptor): ketanserin >methylsergide >eugenosedin-A >5-HT >propranolol >prazosin

O=C1O[C@H]([C@@H](O)CO)C(O)=C1O [ascorbic acid]
LPS-induced production of IFN-γ (IFN-γ): insignificantly enhanced
LPS-induced increase in IL-1β (IL-1β): significantly inhibited
LPS-induced increase in TNF-α (TNF-α; [4]): significantly inhibited
LPS-induced hypotension (LPS-induced hypotension): inhibited LPS-induced hypotension
initial hyperglycemic response to LPS (Blood glucose after LPS): inhibited the initial hyperglycemic response to LPS
hypoglycemic response to LPS (Blood glucose after LPS): did not reverse the hypoglycemic response

O=C(c1ccc(F)cc1)C1CCN(CCn2c(=O)[nH]c3ccccc3c2=O)CC1 [ketanserin]
binding affinity for α2-adrenoceptors (α2 receptors): had binding affinities for α2-adrenoceptors
order of α2 receptor binding potency (α2 receptors): prazosin >eugenosedin-A >ketanserin >methylsergide >propranolol and 5-HT
order of α1 receptor binding potency (α1 receptors): prazosin >ketanserin >eugenosedin-A >methylsergide, propranolol and 5-HT
order of potency on 5-HT2A receptors (5-HT2A receptor): ketanserin >methylsergide >eugenosedin-A >5-HT >propranolol >prazosin

CNCCC(Oc1ccc(C(F)(F)F)cc1)c1ccccc1 (stereo not shown) [fluoxetine]
pressor response and HR [2]: mild, but significant, pressor responses and increased the HR

O=c1n(CCCN2CCN(c3cccc(Cl)c3)CC2)nc2ccccn12 [trazodone]
effect on mean arterial BP and HR [1]: increased mean arterial BP and HR
scavenging of AAPH-derived peroxyl radicals (B-phycoerythrin fluorescence, lag time) [3]: did not scavenge peroxyl radicals
LPS-induced increase in IL-1β (IL-1β): significantly inhibited
LPS-induced increase in TNF-α (TNF-α; [4]): significantly inhibited
LPS-induced increase in TNF-α (TNF-α; [5]): significantly reduced
hypotensive effect of clonidine (α2-adrenoceptor): antagonized the hypotensive effect of clonidine
development of hypotension after LPS injection and normalization of BP (LPS-induced hypotension): normalized BP within 5 hours
first immediate hypotensive phase after LPS (LPS-induced hypotension; pretreatment 0.5 mg kg^−1 i.v.): not affected
first immediate hypotensive phase after LPS (LPS-induced hypotension; pretreatment 1 mg kg^−1 i.v.): attenuated it
second prolonged hypotensive phase after LPS (LPS-induced hypotension): significantly reduced
pressor response and HR [2]: mild, but significant, pressor responses and increased the HR

From patent US7105521B2, “Eugenosedin-A based pharmacoligical agents” (Syn-Tech Chem & Pharm Co., Ltd., priority 2003, dated 2006)
